# From PMC7035293, “Structural ensemble of a glutamate transporter homologue in lipid nanodisc environment” (Nature Communications, 2020)
# What was measured:
# GltTk = target: T1, GltTk (Thermococcus kodakarensis, UniProt Q5JID0); assay: cryo-EM structure of the complex in lipid nanodiscs; details: 300 mM Na+, aspartate binding site
# T1 construct: gene TK0986; C-terminal His8 tag, expressed in E. coli MC1061 (pBAD24-derived plasmid), purified apo, reconstituted in MSP2N2 lipid nanodiscs; homotrimer
# [1] = target: glutamate transporter homologue GltTk from Thermococcus kodakarensis (Thermococcus kodakarensis) (UniProt Q5JID0); assay: cryo-EM structure; GltTk in MSP2N2 nanodiscs (E. coli polar lipids:egg PC 3:1 w/w), 20 mM Tris-HCl pH 8.0, 300 mM NaCl; five structures: Na+-only, L-aspartate unsaturated (two structures), L-aspartate saturated, 120 uM DL-TBOA; 200 keV Talos Arctica
# T1 sequence (Q5JID0 entry or part of it): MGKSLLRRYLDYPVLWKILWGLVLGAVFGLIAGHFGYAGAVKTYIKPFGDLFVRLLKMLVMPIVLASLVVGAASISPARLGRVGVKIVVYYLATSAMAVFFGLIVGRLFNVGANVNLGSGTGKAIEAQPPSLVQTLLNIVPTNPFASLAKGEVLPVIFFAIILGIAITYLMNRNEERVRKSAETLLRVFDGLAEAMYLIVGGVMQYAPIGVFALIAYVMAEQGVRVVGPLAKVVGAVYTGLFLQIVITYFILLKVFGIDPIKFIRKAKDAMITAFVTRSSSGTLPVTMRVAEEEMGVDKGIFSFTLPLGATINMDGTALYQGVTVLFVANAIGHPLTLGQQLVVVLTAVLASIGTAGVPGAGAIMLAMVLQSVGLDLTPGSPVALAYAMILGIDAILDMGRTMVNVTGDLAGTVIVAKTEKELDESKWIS
compound,measurement,setting,value
NC(C(=O)O)C(OCc1ccccc1)C(=O)O (racemic) [DL-TBOA],cryo-EM structure of the complex in lipid nanodiscs,"GltTk; pH 8.0, 120 uM DL-TBOA with 4.5 uM nanodiscs, competitive, outward-open state, two of three protomers occupied",The fully-outward protomers have wide open HP2 gates
N[C@@H](CC(=O)O)C(=O)O [L-aspartate],cryo-EM structure of the complex in lipid nanodiscs,"GltTk; pH 8.0, 50 uM L-aspartate with 5.6 uM nanodiscs, intermediate-outward occluded state, also sub-saturating structures 6XWO and 6XWP",density for the amino acid substrate in the binding site is observed
glutamate transporter homologue GltTk from Thermococcus kodakarensis (from UniProt Q5JID0 1-430) (natural protein),stoichiometry N,[1],3
